Broadly, the EC50 is the midpoint of the concentration-response curve.

Counter-ions that a name gives are not always drawn.

The assay addresses T1, recombinant human TGR5 (Homo sapiens, UniProt Q8TDU6).
T1 construct: expressed in transfected cells
T1 sequence (Q8TDU6 1-330): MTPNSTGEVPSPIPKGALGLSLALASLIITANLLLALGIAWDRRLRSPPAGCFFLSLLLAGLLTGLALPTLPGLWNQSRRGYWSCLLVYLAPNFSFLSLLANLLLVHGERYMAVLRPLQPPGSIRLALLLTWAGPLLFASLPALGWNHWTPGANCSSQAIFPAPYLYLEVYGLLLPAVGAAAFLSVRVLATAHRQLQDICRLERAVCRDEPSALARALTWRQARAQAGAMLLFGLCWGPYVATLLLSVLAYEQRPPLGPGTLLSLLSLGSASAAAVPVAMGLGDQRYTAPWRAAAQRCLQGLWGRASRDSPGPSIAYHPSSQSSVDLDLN
As to the kind of experiment: cAMP assay (cAMP accumulation, HTRF) in CHOK1 cells stably expressing TGR5. It counts as cell-based. The note with it: CHOK1 cells stably expressing human TGR5, 30 minutes at RT, 1% DMSO. The procedure, abridged: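 CHOK1 cells stably expressing TGR5 (text also calls it chimeric human/mouse), 0.4-0.5×10^6 cells/mL in PBS with Ca/Mg and 0.1 mM IBMX, compound 30 min at RT, 1% DMSO. cAMP by HTRF 665/620 interpolated to a standard curve; EC50 from 4-parameter fit as half-maximal increase.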
Background: cAMP levels reflect the balance of adenylyl cyclase and phosphodiesterase activity.
On to `Cc1c(Cl)cccc1Oc1cccc(C(=O)N2CCCOc3c(-c4cnn(Cc5c(F)cc(C(=O)NCCC(=O)O)cc5Cl)c4)cccc32)c1` [Example 815], for which the EC50 was found to be 2000 nM.

With `Cc1cccc(OCCCC(=O)N2CCCc3c(-c4cccc(COC(=O)N[C@@H](C)CC(=O)O)c4)cccc32)c1C` [Example 302, (S)-3-((3-(1-(4-(2,3-Dimethylphenoxy)butanoyl)-l,2,3,4-tetrahydroquinolin-5-yl)benzyloxy)carbonylamino) butanoic acid], the EC50 came out at 593 nM. To `Cc1c(Cl)cccc1OCCCC(=O)N1CCCc2c(-c3cnn(Cc4cccc(NC(=O)N[C@H](CCC(=O)O)C(=O)O)c4)c3)cccc21` [Example 534, (R)-2-(3-(3-((4-(1-(4-(3-Chloro-2-methylphenoxy)butanoyl)-1,2,3,4-tetra-hydroquinolin-5-yl)-1H-pyrazol-1-yl)methyl)phenyl)ureido) pentanedioic acid] belongs 192 nM; to `Cc1c(Cl)cccc1OCCOC(=O)N1C[C@@H]2C[C@@H]2c2c(-c3cnn(Cc4cc(C(=O)NCC5(C(=O)O)CC5)ccc4Cl)c3)cccc21` [Example 699, 1-((4-Chloro-3-((4-((1aR,7bS)-3-((2-(3-chloro-2-methylphenoxy)ethoxy)carbonyl)-1a,2,3,7b-tetrahydro-1H-cyclopropa[c]quinolin-7-yl)-1H-pyrazol-1-yl)methyl)benzamido)methyl) cyclopropanecarboxylic acid], 41 nM; to `Cc1c(Cl)cccc1OCCCC(=O)N1C[C@@H]2C[C@@H]2c2c(-c3cnn(Cc4cccc(N5C(=O)CN(CC(=O)O)C5=O)c4)c3)cccc21` [Example 350, 2-(3-(3-((4-((1aR,7bS)-3-(4-(3-Chloro-2-methylphenoxy)butanoyl)-1a,2,3,7b-tetrahydro-1H-cyclopropa[c]quinolin-7-yl)-1H-pyrazol-1-yl)methyl)phenyl)-2,4-dioxoimidazolidin-1-yl) acetic acid], 31 nM.

On to `Cc1cccc(OCCCC(=O)N2CCCc3c(-c4cnn(Cc5c(F)cc(C(=O)NCS(=O)(=O)O)cc5Cl)c4)cccc32)c1C` [Example 179, (3-Chloro-4-((4-(1-(4-(2,3-dimethylphenoxy)butanoyl)-1,2,3,4-tetrahydroquinolin-5-yl)-1H-pyrazol-1-yl)methyl)-5-fluorobenzamido)methanesulfonic acid], for which the EC50 stood at 45 nM.

Turning to `Cc1cccc(OCCCC(=O)N2CCCc3c(-c4cnn(C(C)c5cccc(NC(=O)NCCS(=O)(=O)O)c5)c4)cccc32)c1C` (centres unmarked) [Example 82, 2-(3-(3-(1-(4-(1-(4-(2,3-Dimethylphenoxy)butanoyl)-1,2,3,4-tetrahydroquinolin-5-yl)-1H-pyrazol-1-yl)ethyl)phenyl)ureido)ethanesulfonic acid], the EC50 was found to be 646 nM. Regarding `Cc1cccc(OCCOC(=O)N2CCOc3c(-c4cnn(Cc5cccc(C(=O)O)c5)c4)cccc32)c1C` [Example 29, 3-((4-(4-((2-(2,3-Dimethylphenoxy)ethoxy)carbonyl)-3,4-dihydro-2H-benzo[b][1,4]oxazin-8-yl)-1H-pyrazol-1-yl)methyl)benzoic acid], the half-maximal effective concentration (EC50) was 596 nM. With `Cc1c(Cl)cccc1OCCCC(=O)N1CCCOc2c(-c3cnn(Cc4c(F)cc(C(=O)NCC[N+](C)(C)C)cc4F)c3)cccc21` [Example 724, 2-(4-((4-(5-(4-(3-Chloro-2-methylphenoxy)butanoyl)-2,3,4,5-tetrahydrobenzo[b][1,4]oxazepin-9-yl)-1H-pyrazol-1-yl)methyl)-3,5-difluorobenzamido)-N,N,N-trimethylethanaminium, TFA salt], the EC50 amounted to 1300 nM.

`Cc1cccc(OCCOC(=O)N2CCOc3c(-c4cnn(Cc5ccc(C(=O)O)cc5)c4)cccc32)c1C` [Example 28, 4-((4-(4-((2-(2,3-Dimethylphenoxy)ethoxy)carbonyl)-3,4-dihydro-2H-benzo[b][1,4]oxazin-8-yl)-1H-pyrazol-1-yl)methyl)benzoic acid]: the EC50 stood at 2860 nM. On to `Cc1cccc(OCCCC(=O)N2CCCc3c(-c4cccc(COC(=O)NC(Cc5c[nH]cn5)C(=O)O)c4)cccc32)c1C` (centres unmarked) [Example 283, 2-((3-(1-(4-(2,3-Dimethylphenoxy)butanoyl)-1,2,3,4-tetrahydroquinolin-5-yl)benzyloxy)carbonylamino)-3-(1H-imidazol-4-yl)propanoic acid], for which the EC50 turned out to be 3180 nM.

For the compound `CCOC(=O)CN(CC(=O)OCC)C(=O)c1cccc(Cn2cc(-c3cccc4c3[C@H]3C[C@H]3CN4C(=O)CCCOc3cccc(Cl)c3C)cn2)c1` [Example 896, Diethyl 2,2′-(3-((4-((1aR,7bS)-3-(4-(3-chloro-2-methylphenoxy)butanoyl)-1a,2,3,7b-tetrahydro-1H-cyclopropa[c]quinolin-7-yl)-1H-pyrazol-1-yl)methyl)benzoylazanediyl)diacetate], the EC50 came out at 198 nM. To `Cc1cccc(OCCCC(=O)N2CCCc3c(-c4cnn(Cc5cccc(S(=O)(=O)NCCS(=O)(=O)O)c5)c4)cccc32)c1C` [Example 110T, 2-(3-((4-(1-(4-(2,3-Dimethylphenoxy)butanoyl)-1,2,3,4-tetrahydroquinolin-5-yl)-1H-pyrazol-1-yl)methyl)phenylsulfonamido) ethanesulfonic acid] belongs 609 nM. Turning to `Cc1cccc(OCCCC(=O)N2CCCc3c(-c4cnn(C(C)c5cccc(NC(=O)NCS(=O)(=O)O)c5)c4)cccc32)c1C` (centres unmarked) [Example 81, (3-(3-(1-(4-(1-(4-(2,3-Dimethylphenoxy)butanoyl)-1,2,3,4-tetrahydroquinolin-5-yl)-1H-pyrazol-1-yl)ethyl)phenyl)ureido)methanesulfonic acid], the EC50 stood at 670 nM. Take `Cc1cccc(OCCCC(=O)N2CC3CC3c3c(-c4cnn(Cc5cc(C(=O)O)ccc5Cl)c4)cccc32)c1C` (centres unmarked) [Example 69H, 4-Chloro-3-((4-(3-(4-(2,3-dimethylphenoxy)butanoyl)-1a,2,3,7b-tetrahydro-1H-cyclopropa[c]quinolin-7-yl)-1H-pyrazol-1-yl)methyl)benzoic acid]: the EC50 worked out at 52 nM. As to `Cc1c(Cl)cccc1OCCOC(=O)N1CCSc2c(-c3cnn(Cc4cccc(C(=O)NCCS(=O)(=O)O)c4Cl)c3)cccc21` [Example 626, 2-(2-Chloro-3-((4-(4-((2-(3-chloro-2-methylphenoxy)ethoxy)carbonyl)-3,4-dihydro-2H-benzo[b][1,4]thiazin-8-yl)-1H-pyrazol-1-yl)metehyl)benzamido)ethanesulfonic acid], the EC50 was 188 nM. For `Cc1c(Cl)cccc1OCCOC(=O)N1C[C@@H]2C[C@@H]2c2c(-c3cnn(Cc4ccc(C(=O)O)cc4Cl)c3)cccc21` [Example 436, 3-Chloro-4-((4-((1aR,7bS)-3-((2-(3-chloro-2-methylphenoxy)ethoxy)carbonyl)-1a,2,3,7b-tetrahydro-1H-cyclopropa[c]quinolin-7-yl)-1H-pyrazol-1-yl)methyl)benzoic acid] the value was 171 nM; for `Cc1c(Cl)cccc1OCCCC(=O)N1CCCOc2c(-c3cnn(Cc4c(F)cc(C(=O)N[C@@H](CCCCN)C(=O)O)cc4Cl)c3)cccc21` [Example 792, (S)-6-Amino-2-(3-chloro-4-((4-(5-(4-(3-chloro-2-methylphenoxy)butanoyl)-2,3,4,5-tetrahydrobenzo[b][1,4]oxazepin-9-yl)-1H-pyrazol-1-yl)methyl)-5-fluorobenzamido)hexanoic acid], 185 nM. For `Cc1cccc(OCCCC(=O)N2CC3CC3c3c(-c4cnn(Cc5c(F)cc(C(=O)NCS(=O)(=O)O)cc5Cl)c4)cccc32)c1C` (centres unmarked) [Example 69B, (3-Chloro-4-((4-(3-(4-(2,3-dimethylphenoxy)butanoyl)-1a,2,3,7b-tetrahydro-1H-cyclopropa[c]quinolin-7-yl)-1H-pyrazol-1-yl)methyl)-5-fluorobenzamido)methanesulfonic acid] the value was 50 nM; for `Cc1cccc(OCCCC(=O)N2CCCc3c(-c4cccc(COC(=O)N(CCCS(=O)(=O)O)C5CC5)c4)cccc32)c1C` [Example 36, 3-(Cyclopropyl((3-(1-(4-(2,3-dimethylphenoxy)butanoyl)-1,2,3,4-tetrahydroquinolin-5-yl)benzyloxy)carbonyl)amino)propane-1-sulfonic acid], 2910 nM.

On to `Cc1cccc(OCCCC(=O)N2C[C@H]3C[C@H]3c3c(-c4cnn(Cc5cccc(NC(=O)NCC(=O)O)c5)c4)cccc32)c1C` (single isomer, unassigned) [Example 251], for which the EC50 stood at 644 nM.

On to `Cc1c(Cl)cccc1OCCOC(=O)N1C[C@@H]2C[C@@H]2c2c(-c3cnn(Cc4cc(C(=O)N[C@@H](CCC[N+](C)(C)C)C(=O)O)ccc4Cl)c3)cccc21` [Example 690, (S)-4-Carboxy-4-(4-chloro-3-((4-((1aR,7bS)-3-((2-(3-chloro-2-methylphenoxy)ethoxy)carbonyl)-1a,2,3,7b-tetrahydro-1H-cyclopropa[c]quinolin-7-yl)-1H-pyrazol-1-yl)methyl)benzamido)-N,N,N-trimethylbutan-1-aminium, TFA salt], for which the EC50 was 45 nM.

Regarding `Cc1cccc(OCCOC(=O)N2CCOc3c(-c4cnn(Cc5cccc(C(=O)NCCS(=O)(=O)O)c5)c4)cccc32)c1C` [Example 182, 2-(3-((4-(4-((2-(2,3-Dimethylphenoxy)ethoxy)carbonyl)-3,4-dihydro-2H-benzo[b] [1,4]oxazin-8-yl)-1H-pyrazol-1-yl)methyl)benzamido) ethanesulfonic acid], the EC50 came out at 589 nM.
